ChEMBL document CHEMBL3301361, “Experimental in vitro DMPK and physicochemical data on a set of publicly disclosed compounds”

How the values were obtained:
physchem = conditions: octan-1-ol/water
in vitro = conditions: human, plasma

| Compound | logD (physchem; pH 7.4, LogD7.4) | fraction unbound at 5 h (in vitro; PPB) | logD (physchem; pH 7.4) | fraction unbound at 5 h (in vitro) |
| --- | --- | --- | --- | --- |
| Cc1cc(Nc2nc(O[C@H](C)c3ccc(F)cn3)c(C#N)nc2C)[nH]n1 | 2.72 | 0.0219 | – | – |
| O=c1[nH]c([C@@H]2CCCN2)nc2c1oc1ccc(Cl)cc12 | 2.01 | 0.072 | – | – |
| O=C(Nc1ccccc1F)NC1N=C(c2ccccc2)c2ccccc2NC1=O (configuration not stated) | – | – | 3.8 | 0.0262 |
| CC(C)Oc1cc(-n2cnc3cnc(N[C@@H](C)c4ncc(F)cn4)nc32)n[nH]1 | 2.41 | 0.309 | – | – |
| COc1ccc(-c2nc3c(OCC4CCNCC4)c(Br)cnc3[nH]2)cc1 | 1.55 | 0.134 | – | – |
| CS(=O)(=O)Cc1ccc2ccn(-c3cc(NC4CC4)n4ncc(C#N)c4n3)c2c1 | 2.49 | 0.0179 | – | – |
| COc1ccc(-c2cc(N)n3ncc(C#N)c3n2)cc1 | 2.42 | 0.0676 | – | – |
| Cc1ccc(S(=O)(=O)N2N=Cc3oc(C)cc3B2O)cc1 | -0.28 | 0.051 | – | – |
| COc1cc(Nc2ncc(C)s2)nc(N[C@@H](C)c2ncc(F)cn2)n1 | 2.99 | 0.103 | – | – |
| Cc1cnc(Nc2cncc(N[C@@H](C)c3ncc(F)cn3)n2)s1 | 1.91 | 0.173 | – | – |
| CC(=O)Nc1ccc2ccn(-c3cc(NCCN4CCCC4)n4ncc(C#N)c4n3)c2c1 | 2.24 | 0.0556 | – | – |
| CO[C@H]1CN(CCn2c(=O)ccc3ccc(C#N)cc32)CC[C@H]1NCc1ccc2c(n1)NC(=O)CO2 | 0.32 | 0.535 | – | – |
| CCOc1cccc(/C=C2\SC(=O)NC2=O)c1N1CCC[C@@H](N)C1 | 1.86 | 0.0521 | – | – |
| CC(C)(C(=O)c1cccnc1)c1cccnc1 [METYRAPONE] | 1.45 | 0.888 | – | – |
| Cc1ccc2c(c1)c(-c1ccnc3c(S(C)(=O)=O)cccc13)c(C)n2CC(=O)O | -0.34 | 0.0606 | – | – |
| Cc1c(OCC(F)(F)F)ccnc1C[S+]([O-])c1nc2ccccc2[nH]1 (configuration not stated) [LANSOPRAZOLE] | – | – | 2.7 | 0.016 |
| CN[C@@H](C)C(=O)N[C@H](C(=O)N[C@H]1CCCCN(Cc2ccccc2)C1)C1CCCCC1 | 2.12 | 0.197 | – | – |
| Cc1cn([C@H]2CCCN(S(=O)(=O)c3ccc(C(=O)O)c(Oc4cccc(Cl)c4)c3)C2)c(=O)[nH]c1=O | -1.28 | 0.04 | – | – |
| NC(=O)c1cncc(-c2ccc([C@H]3CC[C@H](CC(=O)O)CC3)cc2)c1 | 0.22 | 0.0268 | – | – |
| COc1cc2ncc(C(N)=O)c(Nc3ccccc3C)c2cc1OC | 3.4 | 0.0081 | – | – |
| CN[C@@H](C)C(=O)N[C@H](C(=O)N[C@H]1CCCN(CCc2ccc(F)cc2)C1)C1CCCCC1 | 2.39 | 0.266 | – | – |
| CN[C@@H](C)C(=O)N[C@H](C(=O)N[C@H]1CCN(C(=O)c2ccccc2)C1)C1CCCCC1 | 0.82 | 0.661 | – | – |
| COC(=O)[C@H]1[C@@H](c2ccc(I)cc2)C[C@@H]2CC[C@H]1N2CCCF [IOFLUPANE] | – | – | 2.3 | 0.201 |
| Cc1c(N)cccc1Cn1ccc(OCCc2cccs2)cc1=O [CG-400549] | 2.78 | 0.0499 | – | – |
| CC(=O)Nc1ccc2cnn(-c3cc(NC4CC4)n4ncc(C#N)c4n3)c2c1 | 3.44 | 0.0191 | – | – |
| COc1ccnc(CCc2nc3cc(Br)cnc3[nH]2)c1 | 2.92 | 0.0409 | – | – |

| Compound | logD (physchem; pH 7.4, LogD7.4) | fraction unbound at 5 h (in vitro; PPB) | logD (physchem; pH 7.4) | fraction unbound at 5 h (in vitro) |
| --- | --- | --- | --- | --- |
| CNC(=O)c1snnc1-c1ccccc1 | 1.23 | 0.563 | – | – |
| COc1cc(OC)c(S(=O)(=O)N(C)c2ccccc2)cc1NC(C)=O | 1.1 | 0.179 | – | – |
| CC(=O)c1cn(Cc2ccccc2)c(=O)n(Cc2ccc(F)cc2)c1=O | 3.2 | 0.0245 | – | – |
| N#Cc1ccc2c(c1)NC(=O)C2c1ncnc2cc(OCCCN3CCOCC3)ccc12 (configuration not stated) | 2.99 | 0.013 | – | – |
| O=c1[nH]c([C@@H]2CCCN2)nc2c1oc1ccc(Br)cc12 | 2.19 | 0.051 | – | – |
| COc1ccc2ncc(=O)n(CCN3CC[C@@H](NCc4ccc5c(n4)NC(=O)CO5)[C@@H](F)C3)c2c1 | 0.83 | 0.244 | – | – |
| COc1ccc(-c2nc3c(NCCCNC(=O)C4(CN)CC4)c(Br)cnc3[nH]2)cc1 | 1.9 | 0.0293 | – | – |
| NC(=O)c1cnc(N[C@H]2CCCNC2)c2cc(-c3ccc(Cl)cc3)sc12 | 2.78 | 0.0081 | – | – |
| CCNC(=O)Nc1nc2cc(-c3cccnc3)ccc2[nH]1 | 2.34 | 0.0179 | – | – |
| NS(=O)(=O)c1ccc(CCNc2ccc3nnc(-c4ccccc4)n3n2)cc1 | 2.19 | 0.0321 | – | – |
| C1CCC(C(CC2CCCCN2)C2CCCCC2)CC1 (configuration not stated) [PERHEXILINE] | 3.02 | 0.0156 | – | – |
| COc1cc(Nc2nc(N[C@@H](C)c3ncc(F)cn3)ncc2Cl)n[nH]1 | 2.53 | 0.121 | – | – |
| COc1cc(Nc2nc(N[C@@H](C)c3ncc(F)cn3)ncc2Br)n[nH]1 | 2.6 | 0.124 | – | – |
| CC(C)C[C@H](CO)Nc1nc(SCc2cccc(C#N)c2)nc2nc(N)sc12 | 3.9 | 0.0086 | – | – |
| O=C1COc2ccc(CNC3CCN(CCN4C(=O)COc5ccc(Cl)cc54)CC3)nc2N1 | – | – | 1.33 | 0.072 |
| O=C1COc2ccc(CNC3CCN(CCN4C(=O)COc5ccc(OC(F)(F)F)cc54)CC3)nc2N1 | – | – | 1.82 | 0.0209 |
| C[C@]12N[C@H](Cc3ccccc31)c1ccccc12 [DIZOCILPINE] | – | – | 1.6 | 0.529 |
| O=C1COc2ccc(CNC3CCN(CCN4C(=O)COc5ccc(Br)cc54)CC3)nc2N1 | – | – | 1.42 | 0.0262 |
| Oc1ncc(NCc2ccccc2)c(O)n1 | – | – | 0.82 | 0.635 |
| O=C(c1cccc(Cc2n[nH]c(=O)c3ccccc23)c1)N1CCN(c2ncccn2)CC1 | 2.13 | 0.0544 | – | – |
| O=C(CC12CC3CC(CC(C3)C1)C2)Nc1cccc2nc(NCCNCCO)ccc12 | 1.79 | 0.0457 | – | – |
| Cc1ccc(S(=O)(=O)Nc2c(C(=O)N[C@@H](C)C(C)(C)C)c(C)nn2C2CCN(C)CC2)cc1 | 0.8 | 0.454 | – | – |
| Cc1cn([C@H]2CCCN(S(=O)(=O)c3ccc(O)c(Oc4cccc(F)c4)c3)C2)c(=O)[nH]c1=O | 1.6 | 0.0457 | – | – |
| CN[C@@H](C)C(=O)N[C@H](C(=O)N[C@H]1CCCN(CCc2ccccc2)C1)C(C)(C)C | 1.46 | 0.506 | – | – |
| CN[C@@H](C)C(=O)N[C@H](C(=O)N[C@H]1CCN(Cc2ccccc2)C1)C1CCCCC1 | 1.49 | 0.511 | – | – |
| CN(C)S(=O)(=O)c1ccc2c(c1)N(CCN1CCC(NCc3ccc4c(n3)NC(=O)CO4)CC1)C(=O)CO2 | – | – | 0.15 | 0.0928 |

| Compound | logD (physchem; pH 7.4, LogD7.4) | fraction unbound at 5 h (in vitro; PPB) | logD (physchem; pH 7.4) | fraction unbound at 5 h (in vitro) |
| --- | --- | --- | --- | --- |
| COc1cnc(-c2ccccn2)nc1NC(C)C | 2.01 | 0.224 | – | – |
| COc1ccc2c(c1)N(CCN1CCC(NCc3ccc4c(n3)NC(=O)CO4)CC1)C(=O)OC2 | 0.5 | 0.258 | – | – |
| COc1cccc(/C=C2\SC(=O)NC2=O)c1N1CCC[C@@H](N)C1 | 1.27 | 0.0836 | – | – |
| C[C@H](Nc1nc(Nc2ncc(C#N)s2)cc(N2CCOCC2)n1)c1ccc(F)cn1 | 3.45 | 0.0594 | – | – |
| CNC1=Nc2ccc(Cl)cc2C(c2ccccc2)=[N+]([O-])C1 [CHLORDIAZEPOXIDE] | – | – | 2.41 | 0.0229 |
| C[C@H](Nc1ncc(Cl)c(Nc2cc(N(C)C)[nH]n2)n1)c1ncc(F)cn1 | 2.33 | 0.105 | – | – |
| O=C1COc2ccc(CNC3CCN(CCN4C(=O)COc5ccc(-c6ccco6)cc54)CC3)nc2N1 | – | – | 2.19 | 0.006 |
| CC(C)(C)OC(=O)NCCCSC[C@H]1O[C@@H](n2cnc3c(N)ncnc32)[C@H](O)[C@@H]1O | 1.2 | 0.236 | – | – |
| CN[C@@H](C)C(=O)N[C@H](C(=O)N[C@H]1CCCN(CCc2ccccc2F)C1)C1CCCCC1 | 2.51 | 0.262 | – | – |
| CN1CCN(c2cc3c(Nc4ccc(F)cc4F)c(C(N)=O)cnc3cc2F)CC1 | 2.63 | 0.244 | – | – |
| O=C(Cc1ccc(Oc2ccccc2)cc1)NO | 2.03 | 0.02 | – | – |
| NC(=O)c1cnc(N[C@H]2CCCNC2)c2cc(Br)sc12 | 1.08 | 0.179 | – | – |
| O=C(O)CNCCNc1ccc(Cl)c(C(=O)NCC23CC4CC(CC(C4)C2)C3)c1 | 1.94 | 0.072 | – | – |
| C[C@H](Nc1ncc(F)c(Nc2cc(C3CC3)[nH]n2)n1)c1ncc(F)cn1 | 2.47 | 0.224 | – | – |
| N#Cc1cnn2c(N)cc(-c3ccc(F)cc3)nc12 | 2.23 | 0.0544 | – | – |
| CN1CCN(c2ccc3ncc(C(N)=O)c(Nc4ccc(F)cc4F)c3c2)CC1 | 2.3 | 0.258 | – | – |
| Cc1cn([C@H]2CCCN(Cc3ccc(C(=O)O)c(Oc4cccc(Br)c4)c3)C2)c(=O)[nH]c1=O | -0.51 | 0.0191 | – | – |
| O=C(Cc1ccc(OCc2ccccc2)cc1)NO | – | – | 1.92 | 0.0633 |
| CC(C)[C@H](NC(=O)C[C@H](NC(=O)/C=C/c1ccccc1)c1ccccc1)C(=O)[C@@H]1C(=O)NC(=O)[C@H]1C | 1.91 | 0.016 | – | – |
| CN[C@@H](C)C(=O)N[C@H](C(=O)N[C@H]1CCCN(C(=O)Cc2ccccc2)C1)C1CCCCC1 | 1.32 | 0.376 | – | – |
| Cc1cc(Nc2cc(N3CCOCC3)nc(N[C@@H](C)c3ncc(F)cn3)n2)[nH]n1 | 1.91 | 0.54 | – | – |
| COc1ccc2ncc(=O)n(CCN3CC[C@@H](NCc4ccc5c(n4)NC(=O)CO5)[C@@H](O)C3)c2c1 | 0.37 | 0.0532 | – | – |
| CN1CCN(c2ccc3ncc(C(N)=O)c(Nc4ccc(Cl)cc4Cl)c3c2)CC1 | 3.23 | 0.0179 | – | – |
| Cc1ccc(-c2csc3ncnc(O)c23)cc1 | 2.59 | 0.0391 | – | – |
